Results taken from US8003695B2 (Chroma Therapeutics Ltd., priority 2006, dated 2011).

System: human whole blood
Assay: LPS-Stimulation of Human Whole Blood, TNF-α release
Assay type: cell-based
Details: LPS 100 ng/ml, 6 hrs, read-out: Inhibitor activity versus human whole blood TNFα release
Method: LPS-Stimulation of Human Whole Blood
Whole blood was taken by venous puncture using heparinised vacutainers (Becton Dickinson) and diluted in an equal volume of RPMI1640 tissue culture media (Sigma). 100 μl was plated in V-bottomed 96 well tissue culture treated plates. 2 hrs after the addition of the inhibitor in 100 μl of RPMI1640 media, the blood was stimulated with LPS (E. coli strain 005:B5, Sigma) at a final concentration of 100 ng/ml and incubated at 37° C. in 5% CO2 for 6 hrs. TNF-α levels were measured from cell-free supernatants by sandwich ELISA (R&D Systems #QTA00B)

Compound	IC50 [µM]
C[C@@H](O)[C@H](NC/C=C/c1ccc(-c2cc(C(N)=O)c(NC(N)=O)s2)cc1)C(=O)OC1CCCC1 [Example 48, Cyclopentyl N-[(2E)-3-{4-[4-carbamoyl-5-(carbamoylamino)thiophen-2-yl]phenyl}prop-2-en-1-yl]-L-threoninate]	1 to 5
CC(C)[C@H](NCc1cccc(-c2cc(C(N)=O)c(NC(N)=O)s2)c1)C(=O)OC1CCCC1 [Example 15, Cyclopentyl N-{3-[4-carbamoyl-5-(carbamoylamino)thiophen-2-yl]benzyl}-L-valinate]	1 to 5
Cc1ccc(-c2cc(C(N)=O)c(NC(N)=O)s2)cc1CCN[C@@H](CC(C)C)C(=O)OC1CCCC1 [Example 23, Cyclopentyl N-(2-{5-[4-carbamoyl-5-(carbamoylamino)thiophen-2-yl]-2-methylphenyl}ethyl)-L-leucinate]	> 5
C[C@@H](OC(C)(C)C)[C@H](NCCc1cccc(-c2cc(C(N)=O)c(NC(N)=O)s2)c1)C(=O)OC1CCCC1 [Example 21, Cyclopentyl O-tert-butyl-N-(2-{3-[4-carbamoyl-5-(carbamoylamino)-2-thienyl]phenyl}ethyl)-L-threoninate]	> 5

Now from value to compound:

IC50 [µM]	Compound
> 5	CC(C)C[C@H](NCCc1cc(-c2cc(C(N)=O)c(NC(N)=O)s2)ccc1Cl)C(=O)OC1CCCC1 [Example 24, Cyclopentyl N-(2-{5-[4-carbamoyl-5-(carbamoylamino)thiophen-2-yl]-2-chlorophenyl}ethyl)-L-leucinate]
> 5	C[C@@H](OC(C)(C)C)[C@H](NC/C=C/c1ccc(-c2cc(C(N)=O)c(NC(N)=O)s2)cc1)C(=O)OC1CCCC1 [Example 47, Cyclopentyl O-tert-butyl-N-[(2E)-3-{4-[4-carbamoyl-5-(carbamoylamino)thiophen-2-yl]phenyl}prop-2-en-1-yl]-L-threoninate]
1 to 5	CC(C)(C)OC[C@H](NCCc1cccc(-c2cc(C(N)=O)c(NC(N)=O)s2)c1)C(=O)OC1CCCC1 [Example 20, Cyclopentyl O-tert-butyl-N-(2-{3-[4-carbamoyl-5-(carbamoylamino)-2-thienyl]phenyl}ethyl)-L-serinate]
